In brackets after ≈: the same amount, converted by molar mass. Entries after “also recorded” stand apart in the source; their conditions may differ. Read-outs that look alike come from different tables or passages of the source. Where a SMILES comes first, the peptide text is derived from it. The star is where a group is joined. Boc = CC(C)(C)OC(=O)*

Results on 13 compounds are retold here after paper PMC11003968, “Identification of small molecules affecting the interaction between human hemoglobin and Staphylococcus aureus IsdB hemophore” (Scientific Reports, 2024).

The target of series [1] is T1, IsdB:Hb complex (Y165A IsdB, oxyHb) (Homo sapiens, UniProt P68871+P69905).
T1 construct: made in house
Briefly: IsdB-based immunoassay for IsdB:Hb complex formation (screening of potential inhibitors). The series is classed as binding, Staphylococcus aureus IsdB; human Hb. To be noted: 30 µM oxyHb; for average percent of Hb bound to IsdB: commercial compounds at 1 mM, relative to negative control; for percentage of IsdB-bound Hb: in-house synthesized compounds at 1 mM. As for the experimental part: Commercial and synthesized compounds were tested at 1 mM concentration.
Figure 6 Screening of the in silico identified compounds by the IsdB-based immunoassay. […] The lines at 100% and 50%, drawn as reference, were calculated from the absorbance signal at 450 nm measured on the negative control well (i.e. oxyHb incubated without the addition of compounds). Each measurement is the average of at least 2 replicates.
Each measurement is the average of at least two replicates. […] Color code indicates derivatives from a common parent compound indicated with the asterisk.

The nature of a further series: Compound solubilisation. The settings on record: for solubility (in words): solvent as stated in the sentence. The class given is physicochemical. As for the experimental part: The commercial compounds were solubilized in aqueous solutions to reach a 50 mM concentration, taking advantage of the pH and concentration-solubility profile estimated by Chemicalize (https://chemicalize.com/ developed by ChemAxon). When the molecules resulted partially or completely insoluble, the pH was adjusted based on their estimated pH-solubility profiles using either HCl or NaOH concentrated stocks. A cycle of sonication with an ultrasonic bath (Bormac CE-5700, 41300303) was performed for those compounds that resulted insoluble after pH adjustment. If sonication was insufficient, compounds were also heated in a thermoblock at 60 °C for ten minutes. For the compounds that were still not soluble, D6-DMSO was added. For some compounds, complete solubilization required to decrease the concentration of the stock solution. In Table 2 are reported the compounds that required dilution and/or addition of DMSO for solubilization.
(§1) The in-house synthesized compounds were solubilized at 100 mM concentration in D6-DMSO. We indicated with an asterisk (*) the in-house synthesized compounds to distinguish them from the commercial ones. […]. Molecules that resulted partially or completely insoluble were subjected to the same procedure followed for the commercial molecules, except for pH adjustments. The compounds that were highly insoluble were produced as TRIS salts.

For a further series, the target named is HbCO (Homo sapiens, UniProt P68871+P69905). The series is described as follows: STD-NMR binding to Hb. To be noted: 20 µM Hb (heme), 25 °C; for quality of the peaks in the STD spectrum: 1 mM commercial compound; for binding to HbCO by STD-NMR (peaks in STD spectra): 1 mM compound.
In a further series the target is oxyHb (Homo sapiens, UniProt P68871+P69905). The series is described as follows: Effect of compounds on the oxyHb absorption spectrum (oxidation of oxyHb to metHb). The series is classed as biochemical. To be noted: 1 mM compound, 10 µM oxyHb, 4 °C. The procedure: Absorption spectra of the commercial compounds alone or in the presence of oxyHb were recorded with a microplate reader (TECAN Spark® 10 M) in a 384-well, UV-transparent microplate (Greiner UV-STAR® plate—781801). The compounds were diluted in binding buffer to a 2 mM concentration, and the pH of the solutions was adjusted in the range 6.5–7.5. Compounds were then tested at 1 mM concentration to assess for any absorbance around 450 nm that might interfere with the immunoassay. The effect of compounds on the oxyHb spectrum was assessed under the same conditions in the presence of 10 µM oxyHb. […] All the incubation steps were performed at 4 °C, as in the immunoassay. Spectra were subtracted from the contribution of the blank and the compound.
Absorption spectra of the compounds in solution were collected between 350 and 700 nm to exclude any interference with the determination of Hb oxidation (vide infra) and with the absorbance measurement at 450 nm of the immunoassay (Fig. S4). The absorption spectra of Hb solutions were collected in the Q bands region, between 450 and 650 nm, and compounds were added at a final concentration of 1 mM and incubated for 2 h at 4 °C, before the acquisition of the final spectrum (Fig. S5). These Hb absorption bands are sensitive to the redox status of the protein and thus allowed to ascertain whether the tested compounds interfere with the analysis by accelerating the oxidation of oxyHb to metHb, which in turn is susceptible to heme extraction by IsdB, thus introducing an artifact in the assay.

Series [2] can be described thus: Stability of dissolved compound by NMR and liquid chromatography. The series is classed as physicochemical. The procedure: as §1
The mark [3] stands for this setting: 50% D6-DMSO final concentration.

Take `NC(=O)NC(=O)CCCSc1nnc(N)s1` [Compound C44]: in series [1], the “average percent of Hb bound to IsdB” value was “lower than 55%” and the “percentage of IsdB-bound Hb” value was “above 60%”. Moreover, in the series “Compound solubilisation” (setting [3]), the “Stock H2O” value is recorded as 44 (50% D6-DMSO final concentration) mM. In addition, the “solubility (in words)” value in the series “Compound solubilisation” is on record as “solubility issues”. In “Compound solubilisation” (listed as C44*), the “solubility (in words)” value is recorded as “difficult to dissolve in DMSO”. For the same compound, on HbCO, the “quality of the peaks in the STD spectrum” value was “very weak peaks” and the “binding to HbCO by STD-NMR (peaks in STD spectra)” value (“binding to HbCO by STD-NMR” for short) was “gave peaks in the STD spectra”.

As for `Cc1[nH]ncc1C(=O)NCc1cc(OC2CCNC2)ccn1` (centres unmarked) [Compound C41], in series [1], the “average percent of Hb bound to IsdB” value is “lower than 55%”. At HbCO, the “quality of the peaks in the STD spectrum” value was “very weak peaks” and the “binding to HbCO by STD-NMR” value is on record as “gave peaks in the STD spectra; also recorded: only a methyl group was binding to Hb”.

On to `COC(=O)c1[nH]n(-c2ccc(C(=O)O)cc2)c(=O)c1CCO` [Compound C53], for which, in series [1], the “average percent of Hb bound to IsdB” value was “lower than 55%” and the “percentage of IsdB-bound Hb” value is “above 60%”. Also, in the series “Compound solubilisation”, the “solubility (in words)” value is “solubility issues”. On HbCO, the “quality of the peaks in the STD spectrum” value is reported as “very weak peaks” and the “binding to HbCO by STD-NMR” value is reported as “gave peaks in the STD spectra”. In addition, the “binding to HbCO by STD-NMR” value on HbCO (listed as C53*) was “confirmed binding to HbCO”.

Consider `CC(C)CC(NC(=O)C(Cc1ccccc1)NC(=O)CNC(=O)CNC(=O)OC(C)(C)C)C(=O)NC(CCCN=C(N)N)C(=O)O` (centres unmarked) [Compound C28] (Boc-GGFLR-OH; configuration not given here), for which the “oxidation of Hb upon a 2-h incubation” value at oxyHb was “small effects”. Besides, the “Stock H2O” value in “Compound solubilisation” (setting [3]) is 25 (50% D6-DMSO final concentration) mM.

In the case of `NC(=O)COc1ccc(CNC2CCCN(c3cccnn3)C2)cc1` (centres unmarked) [Compound C50], the “average percent of Hb bound to IsdB” value in series [1] is given as “lower than 55%”. Also, the “binding to HbCO by STD-NMR” value on HbCO is recorded as “no peaks were observed”.

On to `O=C(CSc1nnc(-c2c[nH]c3ncccc23)o1)Nc1ccc(C(=O)O)cc1` [Compound C63], for which the “solubility (in words)” value in “Compound solubilisation” is recorded as “poorly soluble”.

Consider `Cn1cc(-c2nnc(SCC(=O)Nc3ccc(C(=O)O)cc3)o2)c2ccccc21` [Compound C61], for which, in the series “Compound solubilisation”, the “solubility (in words)” value is reported as “poorly soluble”.

Take `NC(=O)C1CCN(CC(O)COc2ccc(OCC(O)CN3CCC(C(N)=O)CC3)cc2)CC1` (centres unmarked) [Compound C12]: the “oxidation of Hb upon a 2-h incubation” value at oxyHb is recorded as “small effects”.

On to `NNC(=O)C(=NNc1ccccc1C(=O)NN)C(=O)NN` [Compound C17], for which the “oxidation of Hb upon a 2-h incubation” value at oxyHb is recorded as “small effects”. For the same compound, the “Stock H2O” value in the series “Compound solubilisation” (setting [3]) is given as 25 (50% D6-DMSO final concentration) mM.

Regarding `O=C(CSc1nnc(-c2c[nH]c3ccccc23)o1)Nc1ccc(C(=O)O)cc1` [Compound C35], the solubility in “Compound solubilisation” (aqueous buffer, kinetic from dmso stock, 50 mM HEPES buffer, pH 7.6, diluted from 100 mM DMSO stock, read-out: concentration at which the compound was soluble) amounted to 500 µM (≈ 197 µg/mL). Also, the “solubility (in words)” value in “Compound solubilisation” is on record as “poorly soluble in water”. Besides, the “stability by NMR and liquid chromatography” value in series [2] (dissolved in D6-DMSO) is “stable”. For the same compound, the stability in solution entry in series [2] (dissolved in alkaline aqueous solution) is reported as “underwent a rearrangement”.

Regarding `O=C(O)Cn1cc(-c2nnc(SCC(=O)Nc3ccc(C(=O)O)cc3)o2)c2ccccc21` [Compound C65], the “solubility (in words)” value in the series “Compound solubilisation” is “poorly soluble”.

`NC(=O)Cn1cc(NC(=O)NC2CCC(O)CC2)cn1` (centres unmarked) [Compound C34]: in “Compound solubilisation”, the “Stock H2O” value is listed as 33 (50% D6-DMSO final concentration) mM.

Regarding `CC(C)(Sc1nnc(-c2c[nH]c3ccccc23)o1)C(=O)Nc1ccc(C(=O)O)cc1` [Compound C59], in “Compound solubilisation”, the “solubility (in words)” value is listed as “poorly soluble”.
